The assay concerns the target T1, Mineralocorticoid receptor (Homo sapiens, UniProt P08235).
T1 sequence (P08235 whole entry): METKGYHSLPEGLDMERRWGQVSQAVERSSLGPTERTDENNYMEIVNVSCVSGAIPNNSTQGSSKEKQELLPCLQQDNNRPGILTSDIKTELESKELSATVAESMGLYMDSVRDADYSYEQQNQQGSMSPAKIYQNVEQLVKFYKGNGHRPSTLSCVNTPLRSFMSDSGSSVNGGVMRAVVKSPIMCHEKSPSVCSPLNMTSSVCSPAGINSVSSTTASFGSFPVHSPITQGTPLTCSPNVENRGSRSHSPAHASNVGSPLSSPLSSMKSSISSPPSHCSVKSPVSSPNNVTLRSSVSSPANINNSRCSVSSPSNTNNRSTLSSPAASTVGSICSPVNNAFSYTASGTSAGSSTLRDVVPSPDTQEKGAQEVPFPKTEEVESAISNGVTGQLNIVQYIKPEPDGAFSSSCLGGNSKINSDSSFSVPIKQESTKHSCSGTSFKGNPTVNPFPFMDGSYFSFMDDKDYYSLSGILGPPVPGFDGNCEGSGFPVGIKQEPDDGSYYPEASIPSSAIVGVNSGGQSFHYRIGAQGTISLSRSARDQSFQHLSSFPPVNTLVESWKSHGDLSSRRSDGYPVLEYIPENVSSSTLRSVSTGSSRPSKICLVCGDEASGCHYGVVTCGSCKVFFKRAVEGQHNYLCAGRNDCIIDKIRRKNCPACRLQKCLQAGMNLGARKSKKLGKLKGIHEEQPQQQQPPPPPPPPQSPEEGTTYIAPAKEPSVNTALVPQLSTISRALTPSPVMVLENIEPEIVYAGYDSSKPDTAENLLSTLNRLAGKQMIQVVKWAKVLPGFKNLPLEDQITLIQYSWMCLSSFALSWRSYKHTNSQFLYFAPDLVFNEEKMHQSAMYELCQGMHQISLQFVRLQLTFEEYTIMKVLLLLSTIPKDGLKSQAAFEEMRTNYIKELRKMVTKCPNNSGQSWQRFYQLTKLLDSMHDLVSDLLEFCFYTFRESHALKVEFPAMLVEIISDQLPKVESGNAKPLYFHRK
The assay is described as follows: Antagonist activity at Gal4-fused human MR LBD expressed in HEK293T cells assessed as inhibition of aldosterone-induced transactivation activity after 16 hrs by luciferase reporter gene assay. The class given is cell-based, HEK-293T. (In a reporter assay the amount or activity of a reporter protein is the signal.)

Experimental findings from ChEMBL document CHEMBL4007392, “Modulating Mineralocorticoid Receptor with Non-steroidal Antagonists. New Opportunities for the Development of Potent and Selective Ligands without Off-Target Side Effects” (J Med Chem, 2017) are described below.

In general, IC50 refers to the concentration that gives 50% inhibition.

Structures are written as SMILES.

In the case of `CCOc1ncc(C)c2c1[C@H](c1ccc(C#N)cc1OC)C(C(N)=O)=C(C)N2` [FINERENONE], the IC50 was found to be 58 nM.
